ChEMBL document CHEMBL1201862, “PubChem BioAssay data set” (2004)
The source made the active and inactive calls.

Key:
[1] = target: Ras and Rab interactor 1/Tyrosine-protein kinase ABL1 (Homo sapiens, UniProt P00519+Q13671); type: functional;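 further: biochemical TR-FRET dose-response test measuring inhibition of binding between Rin1 and Abl proteins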
[2] = target: T1, Sentrin-specific protease 8 (Homo sapiens, UniProt Q96LD8); experiment: SENP8 protease inhibitors, SAR follow-up, biochemical, luminescence (AID 504501); type: functional
T1 sequence (Q96LD8 whole entry): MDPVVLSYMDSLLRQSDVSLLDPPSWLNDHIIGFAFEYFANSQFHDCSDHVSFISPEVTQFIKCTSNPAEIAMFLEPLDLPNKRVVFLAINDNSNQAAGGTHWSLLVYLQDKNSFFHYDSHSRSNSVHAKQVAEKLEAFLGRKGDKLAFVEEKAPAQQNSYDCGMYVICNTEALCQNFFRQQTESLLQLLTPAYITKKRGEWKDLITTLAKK

[3] = target: T2, Sentrin-specific protease 6 (Homo sapiens, UniProt Q9GZR1); experiment: SAR Analysis of small molecule inhibitors of Sentrin-specific protease 6 (SENP6) using a Luminescent assay. [Related pubchem assays (depositor defined):AID2582, AID2599]; type: functional
T2 sequence (Q9GZR1 whole entry): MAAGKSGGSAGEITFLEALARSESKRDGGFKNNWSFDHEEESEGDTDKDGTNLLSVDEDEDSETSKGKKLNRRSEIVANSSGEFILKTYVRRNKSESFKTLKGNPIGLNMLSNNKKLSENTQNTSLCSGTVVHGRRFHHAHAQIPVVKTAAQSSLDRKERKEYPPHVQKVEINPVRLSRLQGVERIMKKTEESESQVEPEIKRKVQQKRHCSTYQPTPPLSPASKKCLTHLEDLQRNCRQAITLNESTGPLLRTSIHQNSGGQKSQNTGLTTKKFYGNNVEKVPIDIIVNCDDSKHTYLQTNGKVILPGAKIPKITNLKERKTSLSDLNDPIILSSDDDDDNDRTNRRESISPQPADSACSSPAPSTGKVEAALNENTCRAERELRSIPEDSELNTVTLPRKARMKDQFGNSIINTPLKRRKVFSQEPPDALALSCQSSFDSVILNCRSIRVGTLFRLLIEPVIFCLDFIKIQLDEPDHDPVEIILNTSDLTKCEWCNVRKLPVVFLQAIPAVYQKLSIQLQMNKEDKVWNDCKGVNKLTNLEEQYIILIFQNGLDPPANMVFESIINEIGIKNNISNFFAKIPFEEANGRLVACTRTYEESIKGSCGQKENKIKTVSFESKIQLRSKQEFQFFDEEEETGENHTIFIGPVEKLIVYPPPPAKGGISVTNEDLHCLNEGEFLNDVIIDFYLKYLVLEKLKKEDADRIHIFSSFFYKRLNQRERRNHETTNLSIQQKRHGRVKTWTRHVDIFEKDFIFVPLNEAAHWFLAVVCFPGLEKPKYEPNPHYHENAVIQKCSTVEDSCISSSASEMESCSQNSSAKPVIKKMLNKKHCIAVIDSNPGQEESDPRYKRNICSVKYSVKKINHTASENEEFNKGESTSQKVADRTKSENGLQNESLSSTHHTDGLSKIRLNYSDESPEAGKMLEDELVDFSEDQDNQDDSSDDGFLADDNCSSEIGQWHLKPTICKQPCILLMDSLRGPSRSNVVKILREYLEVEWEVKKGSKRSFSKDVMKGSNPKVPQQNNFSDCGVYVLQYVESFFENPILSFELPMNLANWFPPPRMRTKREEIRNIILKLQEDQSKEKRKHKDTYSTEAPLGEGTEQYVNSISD

[4] = test system: H4; experiment: Luminescence Cell-Based Dose Response HTS to Identify Activators of 5'UTR Stem-Loop Driven Prion Protein mRNA Translation in H4 Neuroglioblastoma Cells. [Related pubchem assays: 1829 (Project Summary), 1814 (Primary HTS)]; type: functional; conditions: Homo sapiens
[5] = target: T3, Caspase-3 (Homo sapiens, UniProt P42574); experiment: SAR Analysis of small molecule inhibitors of Sentrin-specific proteases (SENPs) using a Caspase-3 Selectivity assay. [Related pubchem assays (depositor defined):AID2540, AID2599, AID434973, AID489001]; type: functional
T3 sequence (P42574 whole entry): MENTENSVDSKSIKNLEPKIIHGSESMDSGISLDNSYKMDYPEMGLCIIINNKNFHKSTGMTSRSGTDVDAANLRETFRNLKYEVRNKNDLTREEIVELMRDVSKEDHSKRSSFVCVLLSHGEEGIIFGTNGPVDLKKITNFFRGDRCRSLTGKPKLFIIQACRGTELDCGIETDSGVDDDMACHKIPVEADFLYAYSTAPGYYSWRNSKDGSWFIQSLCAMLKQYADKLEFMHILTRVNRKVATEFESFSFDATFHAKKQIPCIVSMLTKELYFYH

[6] = Luminescence Cell-Based Dose Response HTS to Identify Activators of Luciferase Translation or Activity in H4 […] Cells. [Related pubchem assays: 1829 (Project Summary), 1814 (Primary HTS)]; type: functional
[7] = Luminescence Cell-Based Dose Confirmation HTS to Identify Activators of 5'UTR Stem-Loop Driven Alpha-Synuclein mRNA Translation in H4 Neuroglioblastoma Cells. [Related pubchem assays: 1829 (Project Summary), 1814 (Primary HTS)]; type: functional
[8] = target: T4, DNA repair and recombination protein RAD54-like (Homo sapiens, UniProt Q92698); experiment: inhibitors of human RAD54 branch migration, confirmation, biochemical, fluorescence, cherry-picked samples, dose series (AID 651657); type: functional
T4 sequence (Q92698 whole entry): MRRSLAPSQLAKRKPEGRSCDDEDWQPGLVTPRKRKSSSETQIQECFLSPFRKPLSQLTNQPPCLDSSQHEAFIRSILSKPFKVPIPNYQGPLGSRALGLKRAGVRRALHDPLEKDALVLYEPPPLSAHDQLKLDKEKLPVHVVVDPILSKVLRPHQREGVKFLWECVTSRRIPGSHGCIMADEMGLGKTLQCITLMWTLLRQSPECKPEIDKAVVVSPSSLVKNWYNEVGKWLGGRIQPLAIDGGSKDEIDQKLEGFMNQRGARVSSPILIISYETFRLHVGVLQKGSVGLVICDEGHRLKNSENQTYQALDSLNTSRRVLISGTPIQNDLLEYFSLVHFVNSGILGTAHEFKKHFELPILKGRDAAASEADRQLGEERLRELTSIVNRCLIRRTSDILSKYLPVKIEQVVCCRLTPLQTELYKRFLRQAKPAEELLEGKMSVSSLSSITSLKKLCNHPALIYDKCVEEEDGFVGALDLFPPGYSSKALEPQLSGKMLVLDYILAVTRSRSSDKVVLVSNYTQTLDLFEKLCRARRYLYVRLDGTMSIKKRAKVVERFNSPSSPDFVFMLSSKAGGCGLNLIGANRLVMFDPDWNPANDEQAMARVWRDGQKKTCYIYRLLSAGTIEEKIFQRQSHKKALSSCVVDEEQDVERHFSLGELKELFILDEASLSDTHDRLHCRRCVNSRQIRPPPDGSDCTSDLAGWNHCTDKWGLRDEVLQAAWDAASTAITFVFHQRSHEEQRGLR

[9] = target: T5, High affinity choline transporter 1 (Homo sapiens, UniProt Q9GZV3); experiment: CHT inhibitors, dose response, cell-based, 10-point CRC, membrane potential dye (AID 588401); type: functional;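 further: membrane potential dye fluorescence of choline-evoked depolarization via CHT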
T5 sequence (Q9GZV3 whole entry): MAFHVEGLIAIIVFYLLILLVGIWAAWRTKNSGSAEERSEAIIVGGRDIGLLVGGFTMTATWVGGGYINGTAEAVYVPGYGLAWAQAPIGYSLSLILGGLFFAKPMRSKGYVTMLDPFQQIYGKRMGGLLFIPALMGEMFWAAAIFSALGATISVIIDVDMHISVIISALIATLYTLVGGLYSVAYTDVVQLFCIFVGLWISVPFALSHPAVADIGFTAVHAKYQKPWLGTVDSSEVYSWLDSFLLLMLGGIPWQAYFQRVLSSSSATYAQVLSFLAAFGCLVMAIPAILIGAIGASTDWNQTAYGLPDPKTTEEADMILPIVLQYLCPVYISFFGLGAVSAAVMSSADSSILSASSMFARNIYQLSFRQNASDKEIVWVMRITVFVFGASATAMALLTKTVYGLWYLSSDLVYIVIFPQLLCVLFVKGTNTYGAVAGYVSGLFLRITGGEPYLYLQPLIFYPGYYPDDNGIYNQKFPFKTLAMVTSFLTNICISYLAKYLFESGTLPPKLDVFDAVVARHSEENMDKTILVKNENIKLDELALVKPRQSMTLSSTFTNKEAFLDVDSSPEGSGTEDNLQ

[10] = target: T6, DNA repair protein RAD52 homolog (Homo sapiens, UniProt P43351); type: functional, biochemical
T6 sequence (P43351 whole entry): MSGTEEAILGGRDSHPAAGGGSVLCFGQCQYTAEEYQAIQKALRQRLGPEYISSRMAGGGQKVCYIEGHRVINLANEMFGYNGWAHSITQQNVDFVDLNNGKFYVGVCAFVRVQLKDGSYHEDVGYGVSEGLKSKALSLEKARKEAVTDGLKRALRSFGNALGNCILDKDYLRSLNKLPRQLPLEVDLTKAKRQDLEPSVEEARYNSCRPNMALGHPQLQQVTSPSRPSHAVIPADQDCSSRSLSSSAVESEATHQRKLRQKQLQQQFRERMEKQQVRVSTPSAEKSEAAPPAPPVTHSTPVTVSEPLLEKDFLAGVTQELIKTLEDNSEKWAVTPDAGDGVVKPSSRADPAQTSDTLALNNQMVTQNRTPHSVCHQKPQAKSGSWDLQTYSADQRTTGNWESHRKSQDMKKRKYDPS

[11] = target: T5, High affinity choline transporter 1; experiment: CHT inhibitors, dose response, cell-based, 5-point CRC, membrane potential dye (AID 504840); type: functional
[12] = target: T7, Short transient receptor potential channel 4 (Mus musculus, UniProt Q9QUQ5); experiment: mouse TRPC4 channel inhibitors, dose response, cell-based, HEK293 TRPC4/mu-opioid, Fluo-4 calcium (AID 434942); type: functional;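 further: potency of inhibitors blocking the TRPC4 calcium response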
T7 sequence (Q9QUQ5 whole entry): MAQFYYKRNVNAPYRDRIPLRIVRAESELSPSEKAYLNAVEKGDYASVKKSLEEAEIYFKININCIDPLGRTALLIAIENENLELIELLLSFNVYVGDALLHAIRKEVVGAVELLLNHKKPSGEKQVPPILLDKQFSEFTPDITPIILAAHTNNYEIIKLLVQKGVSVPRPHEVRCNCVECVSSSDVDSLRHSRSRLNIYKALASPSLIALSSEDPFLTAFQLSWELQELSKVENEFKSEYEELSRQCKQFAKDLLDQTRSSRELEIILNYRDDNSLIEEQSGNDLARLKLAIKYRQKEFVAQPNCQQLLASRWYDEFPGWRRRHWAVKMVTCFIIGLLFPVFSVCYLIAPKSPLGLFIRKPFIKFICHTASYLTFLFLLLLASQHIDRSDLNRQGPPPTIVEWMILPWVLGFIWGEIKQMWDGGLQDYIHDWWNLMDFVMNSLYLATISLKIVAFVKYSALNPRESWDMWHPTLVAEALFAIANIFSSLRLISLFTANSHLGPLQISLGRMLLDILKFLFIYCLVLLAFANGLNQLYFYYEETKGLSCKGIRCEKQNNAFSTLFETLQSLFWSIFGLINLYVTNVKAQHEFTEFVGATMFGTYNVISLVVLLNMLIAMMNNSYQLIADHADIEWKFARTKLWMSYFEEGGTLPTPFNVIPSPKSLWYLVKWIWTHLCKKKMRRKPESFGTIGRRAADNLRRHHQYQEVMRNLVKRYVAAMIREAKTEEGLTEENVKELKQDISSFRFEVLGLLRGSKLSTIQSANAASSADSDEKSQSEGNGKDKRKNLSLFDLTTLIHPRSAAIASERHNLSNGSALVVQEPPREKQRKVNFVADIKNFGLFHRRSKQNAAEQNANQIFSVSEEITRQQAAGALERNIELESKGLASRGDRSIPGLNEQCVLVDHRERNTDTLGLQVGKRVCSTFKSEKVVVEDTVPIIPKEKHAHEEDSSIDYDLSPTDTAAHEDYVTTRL

[13] = Shn3 3'UTR reporter inhibitors, dose response, cell-based, Clone20 osteoblasts, firefly luciferase, cherry-picked (AID 624132); type: functional;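 further: firefly luciferase luminescence from reporter carrying the Shn3 3'UTR in osteoblasts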
[14] = control 3'UTR Renilla luciferase suppression, dose response, counter-screen for Shn3 inhibitor project, cell-based, Clone20-Shn3RL, cherry-picked (AID 624133); type: functional
[15] = target: Protein Wnt-3a (Mus musculus, UniProt P27467); experiment: Wnt3a-driven reporter signaling inhibition, dose response, selectivity assay for Gli-SUFU antagonist project, Wnt-LIGHT cells, luminescence (AID 651570); type: functional; conditions: read-out: IC50_Mean;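 further: Wnt-LIGHT reporter cells stimulated with conditioned medium from Wnt3a-producing cells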
[16] = HepG2 cell cytotoxicity, dose response, cytotoxicity control for Shn3 inhibitor project, CellTiter-Glo, cherry-picked (AID 624134); type: functional, cell-based

Sequence of Protein Wnt-3a (P27467 whole entry): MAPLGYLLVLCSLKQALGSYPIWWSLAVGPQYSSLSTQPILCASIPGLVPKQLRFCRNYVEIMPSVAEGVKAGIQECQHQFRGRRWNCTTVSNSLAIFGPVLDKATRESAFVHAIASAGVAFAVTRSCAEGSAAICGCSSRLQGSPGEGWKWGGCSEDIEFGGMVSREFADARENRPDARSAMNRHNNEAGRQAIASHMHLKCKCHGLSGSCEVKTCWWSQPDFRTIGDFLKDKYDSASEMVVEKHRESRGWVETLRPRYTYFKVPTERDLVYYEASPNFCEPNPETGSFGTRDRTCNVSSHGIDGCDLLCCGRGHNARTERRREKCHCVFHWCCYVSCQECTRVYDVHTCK
Sequence of Ras and Rab interactor 1/Tyrosine-protein kinase ABL1 (P00519 whole entry): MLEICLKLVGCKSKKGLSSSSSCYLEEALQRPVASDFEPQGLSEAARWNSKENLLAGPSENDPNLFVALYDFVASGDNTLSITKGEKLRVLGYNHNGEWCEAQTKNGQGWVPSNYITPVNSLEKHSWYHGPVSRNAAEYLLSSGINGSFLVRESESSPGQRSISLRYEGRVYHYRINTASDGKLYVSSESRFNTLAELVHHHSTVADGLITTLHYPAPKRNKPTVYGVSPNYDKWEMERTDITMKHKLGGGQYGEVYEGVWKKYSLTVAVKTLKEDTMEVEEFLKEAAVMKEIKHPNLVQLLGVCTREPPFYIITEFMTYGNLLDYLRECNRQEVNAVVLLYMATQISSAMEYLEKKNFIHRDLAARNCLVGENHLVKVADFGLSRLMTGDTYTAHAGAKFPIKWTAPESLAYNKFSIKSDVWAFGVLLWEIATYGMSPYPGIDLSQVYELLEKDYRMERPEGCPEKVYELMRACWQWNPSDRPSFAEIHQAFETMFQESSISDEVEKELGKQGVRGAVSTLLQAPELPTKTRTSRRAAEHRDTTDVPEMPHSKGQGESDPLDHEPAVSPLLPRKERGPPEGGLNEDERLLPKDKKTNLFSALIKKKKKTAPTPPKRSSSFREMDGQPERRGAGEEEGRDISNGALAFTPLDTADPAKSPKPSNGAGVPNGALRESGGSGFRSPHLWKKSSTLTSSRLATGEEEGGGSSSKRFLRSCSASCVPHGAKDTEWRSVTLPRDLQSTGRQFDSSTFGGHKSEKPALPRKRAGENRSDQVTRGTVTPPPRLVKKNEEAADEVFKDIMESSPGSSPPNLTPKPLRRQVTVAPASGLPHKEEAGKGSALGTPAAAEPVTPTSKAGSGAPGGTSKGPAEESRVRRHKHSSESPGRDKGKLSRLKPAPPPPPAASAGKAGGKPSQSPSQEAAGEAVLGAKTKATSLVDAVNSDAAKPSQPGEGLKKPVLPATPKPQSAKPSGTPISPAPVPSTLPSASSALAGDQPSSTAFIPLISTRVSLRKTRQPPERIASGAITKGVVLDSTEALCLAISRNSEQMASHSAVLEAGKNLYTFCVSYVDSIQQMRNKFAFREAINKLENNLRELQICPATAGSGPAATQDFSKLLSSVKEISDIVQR
Sequence of Ras and Rab interactor 1/Tyrosine-protein kinase ABL1 (Q13671 whole entry): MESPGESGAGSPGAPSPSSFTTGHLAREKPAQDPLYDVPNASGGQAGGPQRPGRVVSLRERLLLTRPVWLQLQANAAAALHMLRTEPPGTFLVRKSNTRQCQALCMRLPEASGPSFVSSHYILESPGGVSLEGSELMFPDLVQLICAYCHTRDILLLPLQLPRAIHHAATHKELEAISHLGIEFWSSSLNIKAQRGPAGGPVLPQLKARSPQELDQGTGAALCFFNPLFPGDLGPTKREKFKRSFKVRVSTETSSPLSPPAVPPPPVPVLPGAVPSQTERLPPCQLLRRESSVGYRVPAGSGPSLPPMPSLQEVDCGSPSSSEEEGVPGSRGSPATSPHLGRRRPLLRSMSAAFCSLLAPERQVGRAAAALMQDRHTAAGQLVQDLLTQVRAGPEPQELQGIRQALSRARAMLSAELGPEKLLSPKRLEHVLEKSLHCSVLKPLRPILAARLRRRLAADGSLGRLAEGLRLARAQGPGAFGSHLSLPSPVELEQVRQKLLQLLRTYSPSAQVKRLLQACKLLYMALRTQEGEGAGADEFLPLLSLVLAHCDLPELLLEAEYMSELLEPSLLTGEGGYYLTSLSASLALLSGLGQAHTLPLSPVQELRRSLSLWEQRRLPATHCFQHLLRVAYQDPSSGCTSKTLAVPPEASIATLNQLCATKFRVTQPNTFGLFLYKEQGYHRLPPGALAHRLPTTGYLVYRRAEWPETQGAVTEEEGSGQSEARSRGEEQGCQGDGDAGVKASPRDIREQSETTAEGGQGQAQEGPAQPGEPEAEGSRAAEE

For CCCc1ncc(CN2CCC(C(=O)Nc3cccc(-c4cscn4)c3)CC2)cn1, the IC50 [1] was 22.3 µM (inactive).

For CC(=O)Nc1ccc(/C=C/c2n[nH]c(-c3ccccc3O)n2)cc1, the IC50 [2] was > 99 µM (inactive), the IC50 [3] was > 99 µM (inactive) and the EC50 [4] was 1.33 µM (active). The IC50 [5] was 30 µM (active), the EC50 [6] was 13.6 µM (active) and the EC50 [7] was 2.79 µM (active).

In the case of CCCN1CCN(CCCN=C(S)Nc2ccc3nc(N4CCN(CC)CC4)cc(C)c3c2)CC1, the AC50 [8] is reported as 25.8 µM (active), the IC50 [9] is reported as 2.67 µM (active) and the AC50 [10] is reported as 1.71 µM (active). The IC50 [11] was 2.3 µM (active).

For Cc1c(C(=O)NCC(c2ccco2)N(C)C)oc2c(Cl)cccc12 (centres undefined), the IC50 [1] was 5.07 µM (active) and the EC50 [12] was 0.267 µM (active).

For Cc1cc(C)nc(SCC(=O)Nc2ccc(N3CCOCC3)c(Cl)c2)n1, the AC50 [13] was 1.66 µM (active), the AC50 [14] was 3.13 µM (active) and the IC50 [15] was 5.24 µM (active). The AC50 [16] was > 70 µM (inactive).

In the case of CC(NC(=O)NC1CCCCC1)c1ccc2c(c1)OCO2 (centres undefined), the IC50 [9] is reported as 2.57 µM (active) and the IC50 [11] is reported as 3.47 µM (active).

In the case of COc1ccc(N(C)S(=O)(=O)c2cccc(C(=O)NC3CCCCC3C)c2)cc1 (centres undefined), the IC50 [9] is reported as 7.08 µM (active) and the IC50 [11] is reported as 4.79 µM (active).

For O=C(Cn1cc(C(=O)C2CC2)c2ccccc21)Nc1ccccc1Cl, the AC50 [13] was 3.42 µM (active), the AC50 [14] was 4.12 µM (active) and the IC50 [15] was 5.2 µM (active).
